# Where two headings read alike, the source gives them in different places.
# Tests used:
# HUVECs = experiment: High-content imaging cytotoxicity in HUVECs, 24 h; format: cell-based, human; conditions: Homo sapiens, HUVEC, 24 h; for viability at 0.01 µM / activity at 0.01 µM / viability at 0.1 µM / activity at 0.1 µM / viability at 1 µM / activity at 1 µM / viability at 10 µM / activity at 10 µM / viability at 100 µM / activity at 100 µM: 0.00 µM = 100.00; for viability at 0.1 µM / activity at 0.1 µM: 0.10 µM
# In short: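 HUVECs (passages 1–5) were plated at 750 cells/well without fibronectin, grown to a monolayer (3–5 d) and exposed to compounds for 24 h at 37°C, 5% CO2. Hoechst 33342, MitoTracker Orange and calcein AM staining was imaged at 10×; readouts were normalized to 0.5% DMSO vehicle and fit to a four-parameter logistic model.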
# [1] = tested on: iCell endothelial cells (human iPSC-derived ECs); experiment: Tube formation (tubulogenesis) assay in iCell endothelial cells, 18 h; format: cell-based; conditions: Homo sapiens, Endothelial cell, 18 hr; for activity at 0.1 µM: 0.10 µM
# In short: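 iCell ECs (passages 1–5) seeded 7,500 cells/well on reduced-growth-factor Geltrex in starvation medium, exposed overnight at 37°C to compounds in triplicate concentration–response (0.5% DMSO vehicle). Calcein AM staining, 4× imaging, angiogenesis image analysis; readouts normalized to vehicle, four-parameter logistic fit, POD at 1 SD of vehicle; 100 μM assigned NOAEL if no response.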
# [2] = HUVECs, 24 hr, read-out: huvec.cyto.24hr
# [3] = HUVECs, 24 hr, read-out: huvec.mito.24hr
# [4] = HUVECs, 24 hr, read-out: huvec.mitoint.24hr
# [5] = HUVECs, 24 hr, read-out: huvec.nma.24hr
# [6] = HUVECs, 24 hrs, read-out: huvec.tc.24hrs
# [7] = iPSC-EC tube formation, 0.00 µM control = 100.00, read-out: endo.mtl.18hr
# [8] = iPSC-EC tube formation, 0.00 µM control = 100.00, read-out: endo.tlps.18hr
# [9] = iPSC-EC tube formation, 0.00 µM control = 100.00, read-out: endo.tta.18hr
# [10] = iPSC-EC tube formation, 0.00 µM control = 100.00, read-out: endo.ttl.18hr
# [11] = cyto, 24 hr, read-out: POD huvec.cyto.24hr
# [12] = mito, 24 hr, read-out: POD huvec.mito.24hr
# [13] = mitoint, 24 hr, read-out: POD huvec.mitoint.24hr
# [14] = nma, 24 hr, read-out: POD huvec.nma.24hr
# [15] = tc, 24 hr, read-out: POD huvec.tc.24hr
# [16] = endothelial cells (endo), tube formation mtl, read-out: POD endo.mtl.18hr
# [17] = endothelial cells (endo), tube formation tlps, read-out: POD endo.tlps.18hr
# [18] = endothelial cells (endo), tube formation tta, read-out: POD endo.tta.18hr
# [19] = endothelial cells (endo), tube formation ttl, read-out: POD endo.ttl.18hr
compound,measurement,setting,value
COc1ccc(-c2cccc(Cl)c2)cc1Cl [4-OMe PCB11],viability at 0.01 µM,HUVECs; [2],96.4%
same,activity at 0.01 µM,HUVECs; [3],94.6%
same,activity at 0.01 µM,HUVECs; [4],95.4%
same,activity at 0.01 µM,HUVECs; [5],96.3%
same,viability at 0.1 µM,HUVECs; [2],98.3%
same,activity at 0.1 µM,HUVECs; [3],98.5%
same,activity at 0.1 µM,HUVECs; [4],106%
same,activity at 0.1 µM,HUVECs; [5],101%
same,viability at 1 µM,HUVECs; [2],101%
same,activity at 1 µM,HUVECs; [3],100%
same,activity at 1 µM,HUVECs; [4],103%
same,activity at 1 µM,HUVECs; [5],100%
same,viability at 10 µM,HUVECs; [2],89.7%
same,activity at 10 µM,HUVECs; [3],86.4%
same,activity at 10 µM,HUVECs; [4],95.6%
same,activity at 10 µM,HUVECs; [5],92.7%
same,viability at 100 µM,HUVECs; [2],56.3%
same,activity at 100 µM,HUVECs; [3],44%
same,activity at 100 µM,HUVECs; [4],65.8%
same,activity at 100 µM,HUVECs; [5],73.1%
same,minimal effective concentration,"HUVECs; HUVECs, 24 hr, top concentration 100.00 µM, read-out: huvec.cyto.24hr POD",7.59 µM
same,minimal effective concentration,"HUVECs; HUVECs, 24 hr, top concentration 100.00 µM, read-out: huvec.mito.24hr POD",6.19 µM
same,minimal effective concentration,"HUVECs; HUVECs, 24 hr, top concentration 100.00 µM, read-out: huvec.mitoint.24hr POD",16 µM
same,minimal effective concentration,"HUVECs; HUVECs, 24 hr, top concentration 100.00 µM, read-out: huvec.nma.24hr POD",6.39 µM
same,viability at 0.01 µM,HUVECs; [6],96.4%
same,viability at 0.1 µM,HUVECs; [6],98.4%
same,viability at 1 µM,HUVECs; [6],101%
same,viability at 10 µM,HUVECs; [6],89.7%
same,viability at 100 µM,HUVECs; [6],56.4%
same,minimal effective concentration,"HUVECs; HUVECs, 24 hrs, top concentration 100.00 µM, read-out: huvec.tc.24hrs POD",7.59 µM
same,activity at 0.01 µM,[1]; [7],115%
same,activity at 0.01 µM,[1]; [8],108%
same,activity at 0.01 µM,[1]; [9],168%
same,activity at 0.01 µM,[1]; [10],169%
same,activity at 0.1 µM,[1]; [7],114%
same,activity at 0.1 µM,[1]; [8],108%
same,activity at 0.1 µM,[1]; [9],134%
same,activity at 0.1 µM,[1]; [10],137%
same,activity at 1 µM,[1]; [7],113%
same,activity at 1 µM,[1]; [8],122%
same,activity at 1 µM,[1]; [9],139%
same,activity at 1 µM,[1]; [10],145%
same,activity at 10 µM,[1]; [7],95.5%
same,activity at 10 µM,[1]; [8],82.3%
same,activity at 10 µM,[1]; [9],105%
same,activity at 10 µM,[1]; [10],106%
same,activity at 100 µM,[1]; [7],88.4%
same,activity at 100 µM,[1]; [8],63.4%
same,activity at 100 µM,[1]; [9],101%
same,activity at 100 µM,[1]; [10],100%
same,minimal effective concentration,"[1]; iPSC-EC tube formation, top concentration 100.00 µM, read-out: endo.mtl.18hr POD",100 µM
same,minimal effective concentration,"[1]; iPSC-EC tube formation, top concentration 100.00 µM, read-out: endo.tlps.18hr POD",28.4 µM
same,minimal effective concentration,"[1]; iPSC-EC tube formation, top concentration 100.00 µM, read-out: endo.tta.18hr POD",0.00169 µM
same,minimal effective concentration,"[1]; iPSC-EC tube formation, top concentration 100.00 µM, read-out: endo.ttl.18hr POD",0.00197 µM
"Clc1cc(Cl)c(-c2cc(Cl)c(Cl)cc2Cl)cc1Cl [PCB 153, 2,2′,4,4′,5,5′-hexachlorobiphenyl]",minimal effective concentration,HUVECs; [11],0.0171 µM
same,minimal effective concentration,HUVECs; [12],0.75 µM
same,minimal effective concentration,HUVECs; [13],0.83 µM
same,minimal effective concentration,HUVECs; [14],1.01 µM
same,minimal effective concentration,HUVECs; [15],0.0171 µM
same,minimal effective concentration,[1]; [16],0.007 µM
same,minimal effective concentration,[1]; [17],1.93 µM
same,minimal effective concentration,[1]; [18],3.83 µM
same,minimal effective concentration,[1]; [19],0.58 µM
Oc1ccc(-c2cccc(Cl)c2)cc1Cl [4-OH-PCB 11],minimal effective concentration,HUVECs; [11],1.37 µM
same,minimal effective concentration,HUVECs; [12],1.2 µM
same,minimal effective concentration,HUVECs; [13],5.43 µM
same,minimal effective concentration,HUVECs; [14],0.99 µM
same,minimal effective concentration,HUVECs; [15],1.37 µM
same,minimal effective concentration,[1]; [16],17.7 µM
same,minimal effective concentration,[1]; [17],52.5 µM
same,minimal effective concentration,[1]; [18],15.8 µM
same,minimal effective concentration,[1]; [19],16.1 µM

# Source: PMC7377239, “Cardiovascular Effects of Polychlorinated Biphenyls and Their Major Metabolites” (Environmental Health Perspectives, 2020)
